Measured values taken from US5622962A, “5α-reductase inhibitors” (priority 1995, dated 1997).

What was measured:
[1] = target: T1, Type II 5α-Reductase from Human Prostate (Homo sapiens, UniProt P31213); assay: Human Type II 5α-reductase assay (conversion of [3H]-testosterone to 5α-reduced metabolites); assay type: biochemical; conditions: pH 5.5, 0.3 μM; sodium acetate pH 5.5, 25°, 30 min; compared to control reaction mixtures; read-out: percent inhibition of Type II AR
T1 construct: The same procedure as above was used for preparations using tissue from prostate surgery; from tissue; host or cells: human prostate tissue from surgery, homogenate, 100,000×g pellet
T1 sequence (P31213 1-254): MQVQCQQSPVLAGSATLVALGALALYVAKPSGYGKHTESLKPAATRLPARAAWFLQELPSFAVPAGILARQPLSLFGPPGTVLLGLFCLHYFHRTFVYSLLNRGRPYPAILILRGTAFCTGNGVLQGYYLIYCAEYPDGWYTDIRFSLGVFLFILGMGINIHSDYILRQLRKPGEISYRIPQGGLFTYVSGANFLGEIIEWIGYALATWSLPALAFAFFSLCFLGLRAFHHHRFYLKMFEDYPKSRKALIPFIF

[2] = target: T2, Type I 5α-Reductase from Human Scalp (Homo sapiens, UniProt P18405); assay: Human Type I 5α-reductase assay (conversion of [3H]-testosterone to 5α-reduced metabolites); assay type: biochemical; conditions: 50 nM [3H]-testosterone, pH 7.5, 25°, 180 min, compared to control reaction mixtures; for percent inhibition of Type I AR: 0.3 μM; for inhibition at 0.3 µM: pH 7.5, 0.3 μM, read-out: percent inhibition of Type I AR
T2 construct: Scalp punch biopsies from graft recipient sites were obtained from human hair transplant procedures; from tissue; host or cells: human scalp punch biopsies (hair transplant graft recipient sites), homogenate, 100,000×g pellet
T2 sequence (P18405 1-259): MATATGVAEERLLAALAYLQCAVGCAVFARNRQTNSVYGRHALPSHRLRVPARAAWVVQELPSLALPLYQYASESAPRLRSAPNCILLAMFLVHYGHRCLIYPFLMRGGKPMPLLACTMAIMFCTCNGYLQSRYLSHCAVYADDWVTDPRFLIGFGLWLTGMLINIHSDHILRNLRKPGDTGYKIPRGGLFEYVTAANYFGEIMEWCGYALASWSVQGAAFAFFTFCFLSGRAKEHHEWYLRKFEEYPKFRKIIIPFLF

Row | Compound | inhibition at 0.3 µM [1] [%] | percent inhibition of Type I AR [2] [%] | inhibition at 0.3 µM [2] [%]
1 | CN1C(=O)CC[C@]2(C)c3ccc(Sc4nccc5ccccc45)cc3CC[C@@H]12 [Example 113, (4aR)-(10bR)-4,10b-dimethyl-8-(1-isoquinolinylthio)-1,2,3,4,4a,5,6,10b-octahydrobenzo[f]quinolin-3-one] | 51 | – | 70
2 | CN1C(=O)CC[C@]2(C)c3ccc(-c4ccc5c6c(cccc46)C(=O)N(CCN4CCOCC4)C5=O)cc3CC[C@@H]12 [Example 234, (+)-(4aR)-(10bR)-4-methyl-8-(2-(2-[1-morpholino]ethyl)-1H-benzo<de>isoquinolin-6-yl-1,3-(2H)dione)-10b-methyl-1,2,3,4,4a,5,6,10b-octahydrobenzo[f]quinolin-3-one] | 30 | – | 83
3 | CN1C(=O)CC[C@]2(C)c3ccc(Sc4nnnn4-c4ccccc4)cc3CC[C@@H]12 [Example 154, (+)-(4aR)-(10bR)-4-methyl-8-(2-[3-phenyl]tetrazoylthio)-10b-methyl-1,2,3,4,4a,5,6,10b-octahydrobenzo[f]quinolin-3-one] | 25 | – | 56
4 | Cc1ccc(Sc2ccc3c(c2)CC[C@H]2N(C)C(=O)CC[C@]32C)cc1 [Example 96, (+)-(4aR)-(10bR)-4,10b-dimethyl-8-(4-methylphenylthio)-1,2,3,4,4a,5,6,10b-octahydrobenzo[f]quinolin-3-one] | 52 | – | 89
5 | CN1C(=O)CC[C@]2(C)c3ccc(C(=O)Nc4ccccc4)cc3CC[C@@H]12 [Example 143, (+)-(4aR)-(10bR)-4-methyl-8-(phenylcarboxamido)-10b-methyl-1,2,3,4,4a,5,6,10b-octahydrobenzo[f]quinolin-3-one] | 18 | – | 63
6 | CN1C(=O)CC[C@]2(C)c3ccc(Sc4ccncc4)cc3CC[C@@H]12 [Example 115, (+)-(4aR)-(10bR)-4,10b-dimethyl-8-(4-pyridinylthio)-1,2,3,4,4a,5,6,10b-octahydrobenzo[f]quinolin-3-one] | 20 | – | 31
7 | CN1C(=O)CC[C@]2(C)c3ccc(Sc4ccccc4Cl)cc3CC[C@@H]12 [Example 99, (+)-(4aR)-(10bR)-4,10b-dimethyl-8-(2-chlorophenylthio)-1,2,3,4,-4a,5,6,10b-octahydrobenzo[f]quinolin-3-one] | – | – | 88
8 | C[C@]12C=CC(=O)N[C@@H]1CCc1cc(-c3cccc([N+](=O)[O-])c3)ccc12 [Example 141, (+)-(4aR)-(10bR)-8-(3-nitrophenyl)-10b-methyl-3,4,4a,5,6,10b-hexahydrobenzo[f]quinolin-3-one] | 19 | – | –
9 | C[C@]12CCC(=O)N[C@@H]1CCc1cc(-c3cccc([N+](=O)[O-])c3)ccc12 [Example 93, (+)-(4aR)-(10bR)-8-(3-nitrophenyl)-10b-methyl-1,2,3,4,4a,5,6,10b-octahydrobenzo[f]quinolin-3-one] | 9 | – | –
10 | CN1C(=O)CC[C@]2(C)c3ccc(NC(=O)c4ccc(N)cc4)cc3CC[C@@H]12 [Example 271, (4aR)-(10bR)-4,10b-dimethyl-8-(4-aminobenzoylamino)-1,2,3,4,4a,5,6,10b-octahydrobenzo[f]quinolin-3-one] | 36 | – | –
11 | C[C@]12CCC(=O)N[C@@H]1CCc1cc(Sc3ccccc3)ccc12 [Example 22, (4aR)-(10bR)-8-phenylthio-10b-methyl-1,2,3,4,4a,5,6,10b-octahydrobenzo[f]quinolin-3-one] | 19 | – | –
12 | C[C@]12CCC(=O)N[C@@H]1CCc1cc(-c3cc(C(F)(F)F)nc4c(C(F)(F)F)cccc34)ccc12 [Example 197, (+)-(4aR)-(10bR)-8-(4-[2,8-bistrifluoromethyl]quinolinyl)-10b-methyl-1,2,3,4,4a,5,6,10b-octahydrobenzo[f]quinolin-3-one] | 37 | – | –
13 | CN1C(=O)CC[C@]2(C)c3ccc(/C=C/c4cncc5ccccc45)cc3CC[C@@H]12 [Example 281, (4aR)-(10bR)-4,10b-dimethyl-8-(2-[4-isoquinolinyl]ethenyl)-1,2,3,4,4a,5,6,10b-octahydrobenzo[f]quinolin-3-one] | 44 | – | –
14 | C[C@]12C=CC(=O)N[C@@H]1CCc1cc(-c3cccc4ccccc34)ccc12 [Example 140, (+)-(4aR)-(10bR)-8-(1-naphthyl)-10b-methyl-3,4,4a,5,6,10b-hexahydrobenzo[f]quinolin-3-one] | 20 | – | –
15 | C[C@]12CCC(=O)N[C@@H]1CCc1cc(-c3cnc4ccccc4c3)ccc12 [Example 196, (+)-(4aR)-(10bR)-8-(3-quinolinyl)-10b-methyl-1,2,3,4,4a,-5,6,10b-octahydrobenzo[f]quinolin-3-one] | – | 11 | –
16 | CN1C(=O)CC[C@]2(C)c3ccc(Sc4ccccc4)cc3CC[C@@H]12 [Example 116, (4aR)-(10bR)-4,10b-dimethyl-8-phenylthio-1,2,3,4, -4a,5,6,10b-octahydrobenzo[f]quinolin-3-one] | 24 | – | –

The next lines start with the values.

Row | inhibition at 0.3 µM [1] [%] | percent inhibition of Type I AR [2] [%] | inhibition at 0.3 µM [2] [%] | Compound
17 | 32 | 100 | 97 | CN1C(=O)CC[C@]2(C)c3ccc(-c4cc(F)c(F)c(F)c4)cc3CC[C@@H]12 [Example 206, (+)-(4aR)-(10bR)-4-methyl-8-(3,4,5-trifluorophenyl)-10b-methyl-1,2,3,4,4a,5,6,10b-octahydrobenzo[f]quinolin-3-one]
18 | 11 | – | 97 | CN1C(=O)CC[C@]2(C)c3ccc(-c4cc(F)ccc4F)cc3CC[C@@H]12 [Example 229, (+)-(4aR)-(10bR)-4-methyl-8-(2,5-difluorophenyl)-10b-methyl-1,2,3,4,4a,5,6,10b-octahydrobenzo[f]quinolin-3-one]
19 | 28 | – | 64 | CN1C(=O)CC[C@]2(C)c3ccc(-c4ccc(C(N)=O)cc4)cc3CC[C@@H]12 [Example 213, (+)-(4aR)-(10bR)-4-methyl-8-(4-carboxamidophenyl)-10b-methyl-1,2,3,4,4a,5,6,10b-octahydrobenzo[f]quinolin-3-one]
20 | – | – | 84 | CN1C(=O)CC[C@]2(C)c3ccc(-c4ccc([N+](=O)[O-])cc4)cc3CC[C@@H]12 [Example 119, (+)-(4aR)-(10bR)-4-methyl-8-(4-nitrophenyl)-10b-methyl-1,2,3,4,4a,5,6,10b-octahydrobenzo[f]quinolin-3-one]
21 | – | – | 92 | CN1C(=O)CC[C@]2(C)c3ccc(-c4ccc(F)c(F)c4)cc3CC[C@@H]12 [Example 27, (+)-(4aR)-(10bR)-4-methyl-8-(3,4-difluorophenyl)-10b-methyl-1,2,3,4,4a,5,6,10b-octahydrobenzo[f]quinolin-3-one]
22 | 27 | – | – | CN1C(=O)CC[C@]2(C)c3ccc(-c4cccc(F)c4)cc3CC[C@@H]12 [Example 44, (+)-(4aR)-(10bR)-4-methyl-8-(3-fluorophenyl)-10b-methyl-1,2,3,4,4a,5,6,10b-octahydrobenzo[f]quinolin-3-one]
23 | – | – | 86 | CN1C(=O)CC[C@]2(C)c3ccc(-c4cccc(F)c4F)cc3CC[C@@H]12 [Example 26, (+)-(4aR)-(10bR)-4-methyl-8-(2,3-difluorophenyl)-10b-methyl-1,2,3,4,4a,5,6,10b-octahydrobenzo[f]quinolin-3-one]
24 | 22 | – | – | CN1C(=O)CC[C@]2(C)c3ccc(-c4cccnc4)cc3CC[C@@H]12 [Example 54, (+)-(4aR)-(10bR)-4-methyl-8-(3-pyridyl)-10b-methyl-1,2,3,4,4a,5,6,10b-octahydrobenzo[f]quinolin-3-one]
25 | 12 | – | – | Cc1cc(C)cc(-c2ccc3c(c2)CC[C@H]2N(C)C(=O)CC[C@]32C)c1 [Example 83, (+)-(4aR)-(10bR)-4-methyl-8-(3,5-dimethylphenyl)-10b-methyl-1,2,3,4,4a,5,6,10b-octahydrobenzo[f]quinolin-3-one]
26 | 34 | – | – | CN1C(=O)CC[C@]2(C)c3ccc(-c4ccc(C(F)(F)F)cc4)cc3CC[C@@H]12 [Example 79, (+)-(4aR)-(10bR)-4-methyl-8-(4-trifluoromethylphenyl)-10b-methyl-1,2,3,4,4a,5,6,10b-octahydrobenzo[f]quinolin-3-one]
27 | 1 | – | – | CN1C(=O)CC[C@]2(C)c3ccc(-c4ccc(Cl)cc4Cl)cc3CC[C@@H]12 [Example 94, (+)-(4aR)-(10bR)-4-methyl-8-(2,4-dichlorophenyl)-10b-methyl-1,2,3,4,4a,5,6,10b-octahydrobenzo[f]quinolin-3-one]
28 | 41 | – | – | CN1C(=O)CC[C@]2(C)c3ccc(-c4ccc(C#N)cc4)cc3CC[C@@H]12 [Example 121, (+)-(4aR)-(10bR)-4-methyl-8-(4-cyanophenyl)-10b-methyl-1,2,3,4,4a,5,6,10b-octahydrobenzo[f]quinolin-3-one]
